Key:
[1] = system: chemoresistant MDA-MB-231 human tumour cells (breast adenocarcinoma); assay: Viability of MDA-MB-231 cells, xCELLigence assay (Table 5); format: cell-based; conditions: conclusion from Tables 5 and 6 (MDA-MB-231 and MCF-7)
[2] = system: MDA-MB-231 (breast adenocarcinoma); assay: Cell viability of chemoresistant MDA-MB-231 cells (Tables 1, 2, 4); format: cell-based, human; conditions: alone or in association with cyclophosphamide
Text: The activity of the association of at least one flavonoid, preferably selected from the group comprising or, alternatively, consisting of oxerutin, diosmin, hesperidin and rutin in association with melatonin and with synthetic chemotherapeutic agents (cyclophosphamide/methotrexate) and/or arctigenin, arctiin, berberine, berbamine, sanguinarine and chelerythrine (indicated with the term “Extracts” in the Tables) was studied in resistant cell lines of adenocarcinomas and carcinomas in comparison with chemosensitive tumour cell lines and line cells.

In the case of `COc1ccc2[nH]cc(CCNC(C)=O)c2c1` [Melatonin, melatonin], the “effect on the anti-tumour activity of flavonoids” value [1] is reported as “enhances the anti-tumour activity of flavonoids”.
With `O=c1c(O)c(-c2ccc(O)c(O)c2)oc2cc(O)cc(O)c12` [Quercetin, quercetin] the “synergistic effects in association with cyclophosphamide” value [2] was “absence of synergistic effects”.

Reference: patent US11026922B2, “Compositions comprising melatonin and flavonoids for use in the treatment of tumours resistant to chemotherapy” (priority 2014, dated 2021)
